This note sets out measurements from patent US20130053337A1, “GUANIDINYLATED AMINOGLYCOSIDE-LIPID CONJUGATES” (UNIVERSITY OF MANITOBA, priority 2010, published 2013).

One data set has as its system MRSA ATCC 33592. The experiment in a line: MIC, broth macrodilution (CLSI). Type of data set: cell-based, methicillin-resistant Staphylococcus aureus. Conditions: for MIC: MRSA ATCC33592; for fold lower MIC (MRSA) compared to analogs 6 and 7: guanidinylated vs polyamine analog. The procedure:
(§1) All experiments were performed in duplicate.
(§2) Bacterial isolates studied included both reference strains obtained from the American Type Culture Collection (ATCC) as well as clinical strains obtained from the CAN-ICU study which was a national surveillance study assessing the prevalence of antimicrobial resistant pathogens in Canadian intensive care units (Zhanel et al., 2008). Isolates were kept frozen in skim milk at −80° C. until minimum inhibitory concentration (MIC) testing was carried out. Following two subcultures from frozen stock, the in vitro activities of peptides were determined by macrobroth dilution in accordance with the Clinical and Laboratory Standards Institute (CLSI) 2006 guidelines (Zhanel et al., 2008). Stock solutions of peptides were prepared and dilutions made as described by CLSI. Test tubes contained doubling antimicrobial dilutions of cation adjusted Mueller-Hinton broth and inoculated to achieve a final concentration of approximately 5×10^5 cfu/ml then incubated in ambient air for 24 hours prior to reading. Colony counts were performed periodically to confirm inocula. Quality control was regularly performed using ATCC QC organisms.

The next data set deals with E. faecalis ATCC 29212. The experiment in a line: MIC, broth macrodilution (CLSI). Conditions: E. faecalis ATCC29212. In kind it is cell-based, Enterococcus faecalis. Here is the method:
as §1, §2

Another data set deals with MRSE CAN-ICU 61589. The experiment in a line: MIC, broth macrodilution (CLSI). In kind it is cell-based, methicillin-resistant Staphylococcus epidermidis. The procedure:
as §1, §2

The next data set deals with S. aureus ATCC 29213. The experiment in a line: MIC, broth macrodilution (CLSI). Type of data set: cell-based, Staphylococcus aureus. Conditions: S. aureus ATCC29213. Here is the method: as §1, §2
In the next data set the test system is S. pneumoniae ATCC 49619. The experiment in a line: MIC, broth macrodilution (CLSI), broth with 5% laked horse blood. In kind it is cell-based, Streptococcus pneumoniae. The settings on record: S. pneumoniae ATCC49619. Here is the method: as §1, §2
Another data set relates to E. faecium ATCC 27270. The experiment in a line: MIC, broth macrodilution (CLSI). In kind it is cell-based, Enterococcus faecium. Conditions: E. facium ATCC27270. The procedure:
as §1, §2

Data set [1] concerns S. epidermidis ATCC 14990. The experiment in a line: MIC, broth macrodilution (CLSI). In kind it is cell-based, Staphylococcus epidermidis. The settings on record: S. epidermidis ATCC14990. Here is the method: as §1, §2
The test system of data set [2] is sheep red blood cell (erythrocytes). The experiment in a line: Hemolytic assay (in vitro toxicity). Conditions: for hemolytic activity at 100 mg/L: sheep erythrocytes, percent hemolysis. Here is the method:
Antibacterial activity against Gram-positive and Gram-negative microorganisms was tested via broth macrodilution tests using CLSI methodology (Zhanel et al., 2008). Stock solutions of cationic lipids in water were brought to a concentration of 512 mg/L. Organisms were subcultured and isolated on blood agar, suspended in 3 mL of Mueller-Hinton broth at the turbidity of a […], and diluted to approximately 10^5 cfu/mL before introduction into tubes containing serially diluted lipopeptide antibiotic in Mueller-Hinton broth. Activity testing against S. pneumoniae used broth supplemented with laked horse blood to give 5% horse blood in experimental tubes. Turbidity of lipopeptide solution in broth required creation of control tubes lacking organisms serving as turbidity controls. All tubes were incubated overnight for 16-20 h at 37° C. […] All experiments were performed in duplicate. In-vitro toxicity was determined using a sheep red blood cell hemolytic assay as previously described (Dathe et al., 1996).
In vitro toxicity was determined using a sheep red blood cell (erythrocytes) hemolytic assay (Dathe et al., 1996). […] Erythrocytes were washed and resuspended in Tris buffered saline. The cell suspension was combined with varying concentrations (low to very high) of test and control antimicrobials (e.g., aminoglycosides and APTCs). The samples were centrifuged and the absorbance of the supernatants measured at 540 nm. Tris buffered saline and Triton X were used as negative and positive controls, respectively. The toxicity was assessed by percent hemolysis.

The subject of the next data set is E. coli ATCC 25922. The experiment in a line: MIC, broth macrodilution (CLSI). In kind it is cell-based. The settings on record: E. coli ATCC25922. The procedure: as §1, §2
Data set [3] deals with E. coli (amikacin MIC 32 mg/L) CAN-ICU 63074. The experiment in a line: MIC, broth macrodilution (CLSI). In kind it is cell-based. The settings on record: E. coli CAN-ICU 63074. The procedure:
as §1, §2

Data set [4] deals with E. coli (gentamicin-resistant) CAN-ICU 61714. The experiment in a line: MIC, broth macrodilution (CLSI). In kind it is cell-based. The settings on record: E. coli CAN-ICU 61714. The procedure: as §1, §2
The test system of the next data set is P. aeruginosa ATCC 27853. The experiment in a line: MIC, broth macrodilution (CLSI). In kind it is cell-based. Conditions: P. aeruginosa ATCC27853. The procedure:
as §1, §2

For data set [5], the system named is P. aeruginosa (gentamicin-resistant) CAN-ICU 62308. The experiment in a line: MIC, broth macrodilution (CLSI). In kind it is cell-based. Here is the method:
as §1, §2

Where [6] appears, read: gentamicin-resistant (as well as neomycin B and kanamycin A-resistant) P. aeruginosa strain.

By MIC is commonly meant the lowest concentration found to suppress growth. A lower MIC goes with greater potency. In the case of `CCCCCCCCCCCC(=O)NCC1OC(OC2C(O)C(NC(=N)N)CC(NC(=N)N)C2OC2OC(CNC(=N)N)C(O)C(O)C2NC(=N)N)C(O)C1OC1OC(CNC(=N)N)C(O)C(O)C1NC(=N)N.O=C(O)C(F)(F)F.O=C(O)C(F)(F)F.O=C(O)C(F)(F)F.O=C(O)C(F)(F)F.O=C(O)C(F)(F)F.O=C(O)C(F)(F)F` (centres unmarked) [Compound 9, 1,3,2′,6′,2′″,6′″-Hexaammonium-guanidinyl-5″-deoxy-5″-N-(dodecanoyl)-neomycin hexakis(trifluoroacetate)], the MIC stood at 8 µg/mL against MRSA ATCC 33592; 32 µg/mL in the data set on E. faecalis ATCC 29212; 2 µg/mL with MRSE CAN-ICU 61589; 4 µg/mL in the data set with S. aureus ATCC 29213; 64 µg/mL against S. pneumoniae ATCC 49619; 16 µg/mL in the data set on E. faecium ATCC 27270. Also, the MIC in [1] came to 2 µg/mL; against E. coli ATCC 25922, 16 µg/mL; in data set [3], 16 µg/mL; in [4], 32 µg/mL; with P. aeruginosa ATCC 27853, 32 µg/mL; in data set [5] (P. aeruginosa CAN-ICU 62308), 32 µg/mL. Also, the “hemolytic activity at 100 mg/L” value in data set [2] amounted to 2%.
Regarding `CCCCCCCCCCCCCCCC(=O)NCC1OC(OC2C(O)C(NC(=N)N)CC(NC(=N)N)C2OC2OC(CNC(=N)N)C(O)C(O)C2NC(=N)N)C(O)C1OC1OC(CNC(=N)N)C(O)C(O)C1NC(=N)N.O=C(O)C(F)(F)F.O=C(O)C(F)(F)F.O=C(O)C(F)(F)F.O=C(O)C(F)(F)F.O=C(O)C(F)(F)F.O=C(O)C(F)(F)F` (centres unmarked) [Compound 10, 1,3,2′,6′,2′″,6′″-Hexaammonium-guanidinyl-5″-deoxy-5″-N-(hexadecanoyl)-neomycin hexakis(trifluoroacetate)], the MIC with MRSA ATCC 33592 amounted to 4 µg/mL; against E. faecalis ATCC 29212, 4 µg/mL; against MRSE CAN-ICU 61589, 4 µg/mL; against S. aureus ATCC 29213 it was 4 µg/mL; in the data set with S. pneumoniae ATCC 49619 it was 32 µg/mL; in the data set on E. faecium ATCC 27270, 0.5 µg/mL. Moreover, the MIC in data set [1] was found to be 1 µg/mL; with E. coli ATCC 25922 it was 32 µg/mL; in data set [3], 32 µg/mL; in data set [4] it was 64 µg/mL; in the data set with P. aeruginosa ATCC 27853, 32 µg/mL; in data set [5] (P. aeruginosa CAN-ICU 62308), 8 µg/mL. This molecule came in with an MIC in [5] (setting [6]) of 8 µg/mL. Further, the “hemolytic activity at 100 mg/L” value in [2] is recorded as 13%. In addition, the “hemolytic activity compared to polyamine analogs 3 and 15” value in [2] (in words) is “reduced hemolytic activity”.
As to `CCCCCCCCCCCCCCCCCCCC(=O)NCC1OC(OC2C(O)C(NC(=N)N)CC(NC(=N)N)C2OC2OC(CNC(=N)N)C(O)C(O)C2NC(=N)N)C(O)C1OC1OC(CNC(=N)N)C(O)C(O)C1NC(=N)N.O=C(O)C(F)(F)F.O=C(O)C(F)(F)F.O=C(O)C(F)(F)F.O=C(O)C(F)(F)F.O=C(O)C(F)(F)F.O=C(O)C(F)(F)F` (centres unmarked) [Compound 11], the MIC against MRSA ATCC 33592 came out at 32 µg/mL; against E. faecalis ATCC 29212, 32 µg/mL; with MRSE CAN-ICU 61589, 4 µg/mL; in the data set on S. aureus ATCC 29213, 32 µg/mL; with S. pneumoniae ATCC 49619, 64 µg/mL; against E. faecium ATCC 27270 it was 2 µg/mL. Further, the MIC was 4 µg/mL in data set [1]; 64 µg/mL against E. coli ATCC 25922; 128 µg/mL in data set [3]; 128 µg/mL in [4]; 128 µg/mL with P. aeruginosa ATCC 27853; 64 µg/mL in data set [5] (P. aeruginosa CAN-ICU 62308). In data set [2], the “hemolytic activity at 100 mg/L” value is 82%.
Take `CCCCC/C=C\C/C=C\CCCCCCCC(=O)NCC1OC(OC2C(O)C(NC(=N)N)CC(NC(=N)N)C2OC2OC(CNC(=N)N)C(O)C(O)C2NC(=N)N)C(O)C1OC1OC(CNC(=N)N)C(O)C(O)C1NC(=N)N.O=C(O)C(F)(F)F.O=C(O)C(F)(F)F.O=C(O)C(F)(F)F.O=C(O)C(F)(F)F.O=C(O)C(F)(F)F.O=C(O)C(F)(F)F` (centres unmarked) [Compound 12, 1,3,2′,6′,2′″,6′″-Hexaammonium-guanidinyl-5″-deoxy-5″-N-(9Z,12Z,octadeca-di-ene-oyl)-neomycin hexakis(trifluoroacetate)]: the MIC against MRSA ATCC 33592 stood at 16 µg/mL; against E. faecalis ATCC 29212, 64 µg/mL; against MRSE CAN-ICU 61589, 8 µg/mL; against S. aureus ATCC 29213, 8 µg/mL; with S. pneumoniae ATCC 49619, 128 µg/mL; against E. faecium ATCC 27270, 64 µg/mL. The MIC stood at 4 µg/mL in data set [1]; 64 µg/mL with E. coli ATCC 25922; 64 µg/mL in data set [3]; 128 µg/mL in [4]; 128 µg/mL in the data set with P. aeruginosa ATCC 27853; 64 µg/mL in [5] (P. aeruginosa CAN-ICU 62308). Further, the “hemolytic activity at 100 mg/L” value in data set [2] came to 1%.
In the case of `N=C(N)NCC1OC(OC2C(CNC(=O)CCCc3ccc4ccc5cccc6ccc3c4c56)OC(OC3C(O)C(NC(=N)N)CC(NC(=N)N)C3OC3OC(CNC(=N)N)C(O)C(O)C3NC(=N)N)C2O)C(NC(=N)N)C(O)C1O.O=C(O)C(F)(F)F.O=C(O)C(F)(F)F.O=C(O)C(F)(F)F.O=C(O)C(F)(F)F.O=C(O)C(F)(F)F.O=C(O)C(F)(F)F` (centres unmarked) [Compound 13, 1,3,2′,6′,2′″,6′″-Hexaammonium-guanidinyl-5″-deoxy-5″-N-((4-pyrenyl)-butanoyl)-neomycin hexakis(trifluoroacetate)], the MIC against MRSA ATCC 33592 was found to be 8 µg/mL; in the data set with E. faecalis ATCC 29212, 32 µg/mL; against MRSE CAN-ICU 61589, 8 µg/mL; with S. aureus ATCC 29213 it was 8 µg/mL; in the data set with S. pneumoniae ATCC 49619, 64 µg/mL; in the data set on E. faecium ATCC 27270, 16 µg/mL. In addition, the MIC came to 8 µg/mL in data set [1]; 32 µg/mL with E. coli ATCC 25922; 32 µg/mL in data set [3]; 32 µg/mL in [4]; 32 µg/mL with P. aeruginosa ATCC 27853; 16 µg/mL in data set [5] (P. aeruginosa CAN-ICU 62308). Besides, the minimum inhibitory concentration (MIC) in [5] (setting [6]) stood at 16 µg/mL. Besides, the “fold lower MIC (MRSA) compared to analogs 6 and 7” value in the data set with MRSA ATCC 33592 is listed as 32 fold. In data set [2], the “hemolytic activity at 100 mg/L” value turned out to be 3%.
For `CC(CCC(=O)NCC1OC(OC2C(O)C(NC(=N)N)CC(NC(=N)N)C2OC2OC(CNC(=N)N)C(O)C(O)C2NC(=N)N)C(O)C1OC1OC(CNC(=N)N)C(O)C(O)C1NC(=N)N)C1CCC2C3C(O)CC4CC(O)CCC4(C)C3CC(O)C12C.O=C(O)C(F)(F)F.O=C(O)C(F)(F)F.O=C(O)C(F)(F)F.O=C(O)C(F)(F)F.O=C(O)C(F)(F)F.O=C(O)C(F)(F)F` (centres unmarked) [Compound 14, 1,3,2′,6′,2′″,6′″-Hexaammonium-guanidinyl-5″-deoxy-5″-N-(cholanoyl)-neomycin hexakis(trifluoroacetate)], the MIC was 16 µg/mL with MRSA ATCC 33592; 32 µg/mL against E. faecalis ATCC 29212; 8 µg/mL against MRSE CAN-ICU 61589; 16 µg/mL against S. aureus ATCC 29213; 64 µg/mL against S. pneumoniae ATCC 49619; 16 µg/mL with E. faecium ATCC 27270. Also, the MIC amounted to 4 µg/mL in data set [1]; 64 µg/mL in the data set on E. coli ATCC 25922; 32 µg/mL in data set [3]; 64 µg/mL in data set [4]; 128 µg/mL in the data set with P. aeruginosa ATCC 27853; 32 µg/mL in data set [5] (P. aeruginosa CAN-ICU 62308). In addition, the “fold lower MIC (MRSA) compared to analogs 6 and 7” value in the data set with MRSA ATCC 33592 was 8 fold. The “hemolytic activity at 100 mg/L” value in data set [2] is given as 2%.
